Molecules are shown by their SMILES. Structures can show the parent of a compound that is named as a salt.

As usually defined, the IC50 is the concentration that inhibits the measured activity by half. A high value points to lower potency.

The first assay has as its target T1, IRAK4 (Homo sapiens, UniProt Q9NWZ3).
T1 sequence (Q9NWZ3 1-460): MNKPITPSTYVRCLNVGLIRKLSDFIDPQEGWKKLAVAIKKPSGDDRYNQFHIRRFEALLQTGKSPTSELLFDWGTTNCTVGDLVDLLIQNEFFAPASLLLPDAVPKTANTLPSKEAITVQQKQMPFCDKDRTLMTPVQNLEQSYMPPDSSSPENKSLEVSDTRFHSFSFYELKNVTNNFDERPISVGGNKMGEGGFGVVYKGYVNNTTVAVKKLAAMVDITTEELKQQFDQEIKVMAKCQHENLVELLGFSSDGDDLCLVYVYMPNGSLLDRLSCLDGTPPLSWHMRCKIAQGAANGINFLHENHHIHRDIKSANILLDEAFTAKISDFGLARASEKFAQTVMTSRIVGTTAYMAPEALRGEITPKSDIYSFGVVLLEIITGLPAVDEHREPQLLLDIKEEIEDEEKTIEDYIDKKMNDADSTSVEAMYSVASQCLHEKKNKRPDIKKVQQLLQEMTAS
The assay is described as follows: biochemical.
Details: not given
Turning to `CC(Oc1cc2nc(C34COC(C)(C3)C4)cn2cc1C(=O)Nc1cccc(C(F)F)n1)C(F)(F)F` (stereo not drawn) [Example 323, N-(6-(difluoromethyl)pyridin-2-yl)-2-(1-methyl-2-oxabicyclo[2.1.1]hexan-4-yl)-7-((1,1,1-trifluoropropan-2-yl)oxy)imidazo[1,2-a]pyridine-6-carboxamide], the IC50 was found to be 0.0007 µM. In other words, the sub-nanomolar range.
On the same count and under the same terms, the figure for `CC(C)Oc1cc2nc(C34COC(C)(C3)C4)c(F)n2cc1C(=O)Nc1cccn(C(F)F)c1=O` [Example 326, N-(1-(difluoromethyl)-2-oxo-1,2-dihydropyridin-3-yl)-3-fluoro-7-isopropoxy-2-(1-methyl-2-oxabicyclo[2.1.1]hexan-4-yl)imidazo[1,2-a]pyridine-6-carboxamide] is 0.0019 µM.
In turn, `CC(C)Oc1cc2nc(C34COC(C)(C3)C4)c(F)n2cc1C(=O)Nc1cnn2cccnc12` [Example 328, 3-Fluoro-7-isopropoxy-2-(1-methyl-2-oxabicyclo[2.1.1]hexan-4-yl)-N-(pyrazolo[1,5-a]pyrimidin-3-yl)imidazo[1,2-a]pyridine-6-carboxamide] displayed a half-maximal inhibitory concentration (IC50) of 0.006 µM.
Still for that read-out and setting: the figure for `CC(C)Oc1cc2nc(C34COC(C)(C3)C4)c(F)n2cc1C(=O)Nc1cccc2ncnn12` [Example 329, N-([1,2,4]triazolo[1,5-a]pyridin-5-yl)-3-fluoro-7-isopropoxy-2-(1-methyl-2-oxabicyclo[2.1.1]hexan-4-yl)imidazo[1,2-a]pyridine-6-carboxamide trifluoroactate] is 0.0012 µM.
On the same count and under the same terms, the result for `CC(C)Oc1cc2nc(C3COCCO3)cn2cc1C(=O)Nc1cccc(C(F)F)n1` (stereo not drawn) [Example 330, N-(6-(difluoromethyl)pyridin-2-yl)-2-(1,4-dioxan-2-yl)-7-isopropoxy-imidazo[1,2-a]pyridine-6-carboxamide] reads 0.0002 µM.
The same measure, in the same setting: the figure for `CC(C)Oc1cc2nc(C3COCCO3)cn2cc1C(=O)Nc1cnn2cccnc12` (stereo not drawn) [Example 331, 2-(1,4-Dioxan-2-yl)-7-isopropoxy-N-(pyrazolo[1,5-a]pyrimidin-3-yl)imidazo[1,2-a]pyridine-6-carboxamide] is 0.002 µM; for `CC12CC(c3cn4cc(C(=O)Nc5cccc(C(F)F)n5)ncc4n3)(CO1)C2` [Example 334, N-(6-(Difluoromethyl)pyridin-2-yl)-2-(1-methyl-2-oxabicyclo[2.1.1]hexan-4-yl)imidazo[1,2-a]pyrazine-6-carboxamide] it is 0.0599 µM.
Consider `CCCOc1nc(C(=O)Nc2cccc(C(F)F)n2)cn2cc(C3CCOCC3)nc12` [Example 335, N-(6-(difluoromethyl)pyridin-2-yl)-8-propoxy-2-(tetrahydro-2H-pyran-4-yl)imidazo[1,2-a]pyrazine-6-carboxamide], for which 0.0006 µM corresponded to half-maximal inhibition (IC50).
With `CC(C)Oc1nc(C(=O)Nc2cccc(C(F)F)n2)cn2cc(C34COC(C)(C3)C4)nc12` [Example 336, N-(6-(difluoromethyl)pyridin-2-yl)-8-isopropoxy-2-(1-methyl-2-oxabicyclo[2.1.1]hexan-4-yl)imidazo[1,2-a]pyrazine-6-carboxamide], the midpoint of inhibition, the IC50, lay at 0.0021 µM.
The same measure, in the same setting: the result for `COc1ncccc1NC(=O)c1cn2cc(C34COC(C)(C3)C4)nc2c(OC(C)C)n1` [Example 337, 8-Isopropoxy-N-(2-methoxypyridin-3-yl)-2-(1-methyl-2-oxabicyclo[2.1.1]hexan-4-yl)imidazo[1,2-a]pyrazine-6-carboxamide] reads 0.0004 µM.
On the same count and under the same terms, the figure for `CC(C)Oc1nc(C(=O)Nc2cccc(C(F)F)n2)cn2cc(C34COC(CF)(C3)C4)nc12` [Example 338, N-(6-(difluoromethyl)pyridin-2-yl)-2-(1-(fluoromethyl)-2-oxabicyclo[2.1.1]hexan-4-yl)-8-isopropoxyimidazo[1,2-a]pyrazine-6-carboxamide] is 0.0105 µM; for `COc1ncccc1NC(=O)c1cn2cc(C34COC(CF)(C3)C4)nc2c(OC(C)C)n1` [Example 339, 2-(1-(Fluoromethyl)-2-oxabicyclo[2.1.1]hexan-4-yl)-8-isopropoxy-N-(2-methoxypyridin-3-yl)imidazo[1,2-a]pyrazine-6-carboxamide] it is 0.0008 µM.
The same measure, in the same setting: the result for `CC(C)Oc1nc(C(=O)Nc2cnn3cccnc23)cn2cc(C34COC(CF)(C3)C4)nc12` [Example 340, 2-(1-(Fluoromethyl)-2-oxabicyclo[2.1.1]hexan-4-yl)-8-isopropoxy-N-(pyrazolo[1,5-a]pyrimidin-3-yl)imidazo[1,2-a]pyrazine-6-carboxamide] reads 0.0067 µM.
For the compound `CC(C)Oc1nc(C(=O)Nc2cccn(C)c2=O)cn2cc(C34CCC(C)(C3)OC4)nc12` (stereo not drawn) [Example 341, 8-Isopropoxy-N-(1-methyl-2-oxo-1,2-dihydropyridin-3-yl)-2-(1-methyl-2-oxabicyclo[2.2.1]heptan-4-yl)imidazo[1,2-a]pyrazine-6-carboxamide], the IC50 was 0.0009 µM.
Same read-out and setting: the figure for `CCCOc1nc(C(=O)Nc2cccnc2OC)cn2cc(C34COC(C)(C3)C4)nc12` [Example 342, N-(2-methoxypyridin-3-yl)-2-(1-methyl-2-oxabicyclo[2.1.1]hexan-4-yl)-8-propoxyimidazo[1,2-a]pyrazine-6-carboxamide] is 0.001 µM; for `CCCOc1nc(C(=O)Nc2cccc(C(F)(F)F)n2)cn2cc(C34COC(C)(C3)C4)nc12` [Example 343, 2-(1-Methyl-2-oxabicyclo[2.1.1]hexan-4-yl)-8-propoxy-N-(6-(trifluoromethyl)pyridin-2-yl)imidazo[1,2-a]pyrazine-6-carboxamide] it is 0.0048 µM.

Still in this assay, the particulars now being: IRAK4 Biochemical Assay (1 mM ATP, 2 h) IC50 (μM), 1 mM ATP, 2 h, 100 pM IRAK4.
Regarding `CC(C)Oc1cc2nc(C34COC(C)(C3)C4)c(F)n2cc1C(=O)Nc1cccc(C(F)F)n1` [Example 324, N-(6-(difluoromethyl)pyridin-2-yl)-3-fluoro-7-isopropoxy-2-(1-methyl-2-oxabicyclo[2.1.1]hexan-4-yl)imidazo[1,2-a]pyridine-6-carboxamide trifluoroacetate], inhibition was half-maximal at 0.002 µM (IC50).
Compound `COc1ncccc1NC(=O)c1cn2c(F)c(C34COC(C)(C3)C4)nc2cc1OC(C)C` [Example 325, 3-Fluoro-7-isopropoxy-N-(2-methoxypyridin-3-yl)-2-(1-methyl-2-oxa-bicyclo[2.1.1]hexan-4-yl)imidazo[1,2-a]pyridine-6-carboxamide trifluoroacetate] had an IC50 of 0.0086 µM.
The same measure, in the same setting: the figure for `CC(C)Oc1cc2nc(C34COC(C)(C3)C4)c(F)n2cc1C(=O)Nc1ccn(C)n1` [Example 327, 3-Fluoro-7-isopropoxy-N-(1-methyl-1H-pyrazol-3-yl)-2-(1-methyl-2-oxabicyclo[2.1.1]hexan-4-yl)imidazo[1,2-a]pyridine-6-carboxamide trifluoroacetate] is 0.0372 µM; for `COc1ncccc1NC(=O)c1cn2cc(C34COC(C)(C3)C4)nc2cc1OC(F)F` [Example 332, 7-(Difluoromethoxy)-N-(2-methoxypyridin-3-yl)-2-(1-methyl-2-oxabicyclo[2.1.1]hexan-4-yl)imidazo[1,2-a]pyridine-6-carboxamide trifluoroacetate] it is 0.0052 µM; for `CC12CC(c3cn4cc(C(=O)Nc5cccc(C(F)F)n5)c(OC(F)F)cc4n3)(CO1)C2` [Example 333, 7-(Difluoromethoxy)-N-(6-(difluoromethyl)pyridin-2-yl)-2-(1-methyl-2-oxabicyclo[2.1.1]hexan-4-yl)imidazo[1,2-a]pyridine-6-carboxamide trifluoroacetate] it is 0.0052 µM.

For the origin of these results see patent US20230087118A1, “IMIDAZO[1,2-a][sequence] DERIVATIVES AND THEIR USE IN THE TREATMENT OF DISEASE” (priority 2019, published 2023).
